In PubChem BioAssay (NCI):
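Following 48 hours of exposure in 96-well plates, responses at five concentrations were used to interpolate endpoints linearly. GI50: concentration for 50% inhibition of growth. TGI: concentration producing complete growth inhibition.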

Tests used:
Test in all cases: NCI tumour cell line growth inhibition, 48 h
[1] = test system: A498 renal
[2] = test system: HCT-116 colon
[3] = test system: KM12 colon
[4] = test system: MALME-3M melanoma
[5] = test system: NCI-H23 lung
[6] = test system: NCI-H460 lung
[7] = test system: RXF 393 renal
[8] = test system: SK-MEL-2 melanoma
[9] = test system: SK-MEL-28 melanoma
[10] = test system: SNB-19 CNS

Structure (SMILES) | TGI [1] [µM] | TGI [2] [µM] | TGI [3] [µM] | TGI [4] [µM] | TGI [5] [µM] | TGI [6] [µM] | TGI [7] [µM] | TGI [8] [µM] | TGI [9] [µM] | TGI [10] [µM] | GI50 [1] [µM] | GI50 [2] [µM] | GI50 [3] [µM] | GI50 [4] [µM] | GI50 [5] [µM] | GI50 [6] [µM] | GI50 [7] [µM] | GI50 [8] [µM] | GI50 [9] [µM] | GI50 [10] [µM]
CCOC(=O)/C(O)=C/c1cc(OC)cc(=O)o1 | > 100 | > 100 | > 100 | > 100 | > 100 | > 100 | > 100 | > 100 | > 100 | > 100 | – | – | – | – | – | – | – | – | – | –
CC1OC(OCC2OC(Oc3c(-c4ccc(O)cc4)oc4cc(O)cc(O)c4c3=O)C(OC3OC(C)C(O)C(O)C3O)C(O)C2O)C(O)C(O)C1O (configuration not stated) | > 100 | > 100 | > 100 | > 100 | > 100 | > 100 | > 100 | > 100 | > 100 | > 100 | – | – | – | – | – | – | – | – | – | –
O=[N+]([O-])c1ccc(S(=O)Cc2ccccc2)c([N+](=O)[O-])c1 (configuration not stated) | 25.7 | 2.55 | 29.4 | 3.26 | 8.91 | 33.2 | 2.78 | 22.3 | 4.13 | 27.6 | 13 | 1.29 | 15.6 | 1.62 | 2.54 | 16.4 | 1.45 | 8.54 | 1.89 | 14
CCCNCCCC(NC(C)=O)C(=O)NCc1ccccc1 (configuration not stated) | > 100 | > 100 | > 100 | > 100 | > 100 | > 100 | > 100 | > 100 | > 100 | > 100 | – | – | – | – | – | – | – | – | – | –
COc1cc2c(c(OC)c1OC)-c1ccc(N)c(=O)cc1[C@@H](NC(C)=O)CC2 | – | > 100 | 0.186 | > 100 | > 100 | – | > 100 | 0.0353 | > 100 | > 100 | 0.0297 | 0.0168 | < 0.01 | 48.8 | 0.0316 | 0.0294 | 0.0303 | < 0.01 | > 100 | 0.914
CC(=O)NNc1nc(C)c(C(=O)NNC(=O)C(=O)Nc2c(C)cccc2C)s1 | > 100 | > 100 | > 100 | > 100 | 60.1 | > 100 | 88.2 | > 100 | > 100 | > 100 | – | – | – | – | – | – | – | – | – | –
CCn1c(C(=O)N(C2CC2)C2CC2)cc2c3c(ncn3C)c(Nc3cc(C)n(C)n3)nc21 | > 100 | > 100 | > 100 | > 100 | > 100 | > 100 | 23.9 | > 100 | > 100 | > 100 | – | > 100 | 0.506 | > 100 | > 100 | > 100 | 2.99 | > 100 | > 100 | > 100
CN(C)c1ccc([O-])cc1.CN(C)c1ccc([O-])cc1.CN(C)c1ccc([O-])cc1.CN(C)c1ccc([O-])cc1.[Ti+4] | > 100 | > 100 | > 100 | > 100 | > 100 | > 100 | > 100 | > 100 | > 100 | > 100 | 19.4 | > 100 | 55 | > 100 | > 100 | 37.4 | 59 | > 100 | > 100 | > 100
O=C(O)C1C2CCC(O2)C1C(=O)N1CCCCC1 (configuration not stated) | 4.46 | 22.6 | 37.2 | 23.6 | 33.4 | 39.2 | 8.35 | 21.2 | 19.5 | 38.2 | – | – | – | – | – | – | – | – | – | –
CCN(CC)CCNc1ccc([N+](=O)[O-])c2sc3ccccc3c(=O)c12 | 2.16 | 1.56 | 2.55 | 3.63 | 2.78 | 1.96 | 3.03 | 5.53 | 3.3 | 13 | 0.591 | 0.36 | 1.19 | 1.47 | 1.23 | 0.443 | 1.43 | 1.21 | 1.77 | 2.22
COc1ccc(-c2oc3c(OC)c(OC)c(OC)c(O)c3c(=O)c2OC)cc1OC | > 64.8 | > 100 | > 100 | 97.1 | > 83.8 | > 83.7 | 87.4 | 66.2 | > 100 | > 100 | – | – | – | – | – | – | – | – | – | –
C=CCN(/C=C1/C(=O)O[C@H](COC)[C@@]2(C)C1=C(O)C(=O)C1=C2[C@H](OC(C)=O)C[C@]2(C)C(=O)CC[C@@H]12)CC=C | 0.103 | > 10 | > 10 | > 10 | > 10 | > 10 | 1.56 | > 6.23 | > 10 | > 10 | 0.0205 | 1.17 | 2.52 | 0.784 | > 5.65 | 0.585 | 0.112 | 1.22 | 1.1 | 3.45
O=C1c2ccc([N+](=O)[O-])cc2-c2c1c1ccccc1c(=O)n2CCCNCCCNCCCn1c2c(c3ccc([N+](=O)[O-])cc3c1=O)C(=O)c1ccccc1-2 | 8.88 | 2.91 | 4.31 | 41.7 | 3.4 | 14.6 | 41 | 62.3 | 15.9 | 6.54 | 2.05 | 0.933 | 1.53 | 5.51 | 1.2 | 2.34 | 5.51 | 17.3 | 3.83 | 0.985
Cc1ccc(/C(=N\N=C(N)N)c2ccccc2)cc1 | 1.02 | 11.3 | 5.05 | 17.3 | 9.98 | 3.19 | 2.9 | 28.7 | 15.4 | 13.1 | 0.272 | 0.342 | 0.367 | 0.391 | 0.597 | 0.33 | 0.296 | 5.02 | 0.535 | 0.455
